System: MV-4-11 cells
Test: Gene expression microarray analysis (Affymetrix PrimeView) and GSEA
Assay type: cell-based, human
Parameters: RFU PODN (11730768_x_at) / Fold change /veh PODN (11730768_x_at) / RFU LINC00158 (11744669_a_at) / Fold change /veh LINC00158 (11744669_a_at) / RFU DUSP10 (11751237_a_at) / Fold change /veh DUSP10 (11751237_a_at) / RFU ID3 (11757404_x_at) / Fold change /veh ID3 (11757404_x_at) / RFU PLEKHG5 (11737974_s_at) / Fold change /veh PLEKHG5 (11737974_s_at) / RFU LRRC4B (11730491_at) / Fold change /veh LRRC4B (11730491_at) / RFU GIMAP4 (11747438_a_at) / Fold change /veh GIMAP4 (11747438_a_at) / RFU KRT8 (11758183_x_at) / Fold change /veh KRT8 (11758183_x_at) / RFU CNN1 (11734310_a_at) / Fold change /veh CNN1 (11734310_a_at) / RFU VPS37D (11726825_at) / Fold change /veh VPS37D (11726825_at) / RFU C10orf10 (11716522_x_at) / Fold change /veh C10orf10 (11716522_x_at) / RFU KIR2DL2 /// KIR2DL4 /// KIR2DL5A /// KIR2DL5B /// KIR2DS1 /// KIR2DS2 /// KIR2DS3 /// KIR2DS4 /// KIR3DL3 /// KIR3DL3 /// KIR3DS1 (11738374_at) / Fold change /veh KIR2DL2 /// KIR2DL4 /// KIR2DL5A /// KIR2DL5B /// KIR2DS1 /// KIR2DS2 /// KIR2DS3 /// KIR2DS4 /// KIR3DL3 /// KIR3DL3 /// KIR3DS1 (11738374_at) / RFU C1QL1 (11718748_at) / Fold change /veh C1QL1 (11718748_at) / RFU TMPRSS4 (11747572_a_at) / Fold change /veh TMPRSS4 (11747572_a_at) / RFU HAMP (11756126_x_at) / Fold change /veh HAMP (11756126_x_at) / RFU RNFT2 (11725882_a_at) / Fold change /veh RNFT2 (11725882_a_at) / RFU NR4A2 (11747474_a_at) / Fold change /veh NR4A2 (11747474_a_at) / RFU ABCC12 (11746883_a_at) / Fold change /veh ABCC12 (11746883_a_at) / RFU TMEM136 (11760407_x_at) / Fold change /veh TMEM136 (11760407_x_at) / RFU CLDN22 /// WWC2 (11732394_at) / Fold change /veh CLDN22 /// WWC2 (11732394_at) / RFU HLA-DPB1 (11760878_x_at) / Fold change /veh HLA-DPB1 (11760878_x_at) / RFU SPINT1 (11716480_a_at) / Fold change /veh SPINT1 (11716480_a_at) / RFU GAP43 (11754022_s_at) / Fold change /veh GAP43 (11754022_s_at) / RFU A4GNT (11735810_at) / Fold change /veh A4GNT (11735810_at) / RFU PRB3 (11715151_x_at) / Fold change /veh PRB3 (11715151_x_at) / RFU TUBB4B (11761932_at) / Fold change /veh TUBB4B (11761932_at) / RFU CAPN14 (11732068_a_at) / Fold change /veh CAPN14 (11732068_a_at) / RFU TMCC2 (11721928_a_at) / Fold change /veh TMCC2 (11721928_a_at) / RFU IRGQ (11745062_a_at) / Fold change /veh IRGQ (11745062_a_at) / RFU FAM174B (11720279_a_at) / Fold change /veh FAM174B (11720279_a_at) / RFU TMPRSS4 (11748680_a_at) / Fold change /veh TMPRSS4 (11748680_a_at) / RFU FAM212B (11763350_a_at) / Fold change /veh FAM212B (11763350_a_at) / RFU PLEKHG5 (11743358_a_at) / Fold change /veh PLEKHG5 (11743358_a_at) / RFU ZSCAN30 (11745921_a_at) / Fold change /veh ZSCAN30 (11745921_a_at) / RFU CMKLR1 (11741424_a_at) / Fold change /veh CMKLR1 (11741424_a_at) / RFU LOC101060620 /// MAPK8IP1 (11723275_at) / Fold change /veh LOC101060620 /// MAPK8IP1 (11723275_at) / RFU SPTSSB (11747773_x_at) / Fold change /veh SPTSSB (11747773_x_at) / RFU PRSS12 (11739890_at) / Fold change /veh PRSS12 (11739890_at) / RFU BIN1 (11741810_x_at) / Fold change /veh BIN1 (11741810_x_at) / RFU WNT11 (11732464_a_at) / Fold change /veh WNT11 (11732464_a_at) / RFU C10orf10 (11716521_a_at) / Fold change /veh C10orf10 (11716521_a_at) / RFU C5orf56 (11738089_at) / Fold change /veh C5orf56 (11738089_at) / RFU CYB561 (11721691_x_at) / Fold change /veh CYB561 (11721691_x_at) / RFU ANKRD19P (11752326_a_at) / Fold change /veh ANKRD19P (11752326_a_at) / RFU OR2T12 /// OR2T33 /// OR2T8 (11738714_s_at) / Fold change /veh OR2T12 /// OR2T33 /// OR2T8 (11738714_s_at) / RFU VCAN (11748164_a_at) / Fold change /veh VCAN (11748164_a_at) / RFU JSRP1 (11732532_at) / Fold change /veh JSRP1 (11732532_at) / RFU KRTAP10-11 (11738290_x_at) / Fold change /veh KRTAP10-11 (11738290_x_at) / RFU MYO3A (11730013_a_at) / Fold change /veh MYO3A (11730013_a_at) / RFU EBF3 (11725865_a_at) / Fold change /veh EBF3 (11725865_a_at) / RFU CAMK2N1 (11719241_x_at) / Fold change /veh CAMK2N1 (11719241_x_at) / RFU C5orf56 (11738088_a_at) / Fold change /veh C5orf56 (11738088_a_at) / RFU OLFML3 (11715873_a_at) / Fold change /veh OLFML3 (11715873_a_at) / RFU LOC100653217 /// NTM (11731650_a_at) / Fold change /veh LOC100653217 /// NTM (11731650_a_at) / RFU MAPK11 (11762145_a_at) / Fold change /veh MAPK11 (11762145_a_at) / RFU FIZ1 (11724087_x_at) / Fold change /veh FIZ1 (11724087_x_at) / RFU OASL (11726364_x_at) / Fold change /veh OASL (11726364_x_at) / RFU SOX15 (11748057_x_at) / Fold change /veh SOX15 (11748057_x_at) / RFU CD79A (11719716_a_at) / Fold change /veh CD79A (11719716_a_at) / RFU HIST1H1D (11736915_at) / Fold change /veh HIST1H1D (11736915_at) / RFU CASKIN2 (11723855_a_at) / Fold change /veh CASKIN2 (11723855_a_at) / RFU LOC730098 (11760151_x_at) / Fold change /veh LOC730098 (11760151_x_at) / RFU OR4N2 (11742367_at) / Fold change /veh OR4N2 (11742367_at) / RFU PRRT2 (11749266_a_at) / Fold change /veh PRRT2 (11749266_a_at) / RFU SNX32 (11753110_a_at) / Fold change /veh SNX32 (11753110_a_at) / RFU CDHR5 (11726645_a_at) / Fold change /veh CDHR5 (11726645_a_at) / RFU RCAN1 (11760418_a_at) / Fold change /veh RCAN1 (11760418_a_at) / RFU FAM167A (11723789_a_at) / Fold change /veh FAM167A (11723789_a_at) / RFU FAM26E (11764081_at) / Fold change /veh FAM26E (11764081_at) / RFU ISYNA1 (11749810_s_at) / Fold change /veh ISYNA1 (11749810_s_at) / RFU ACY1 (11761880_at) / Fold change /veh ACY1 (11761880_at) / RFU 11764098_at / Fold change /veh 11764098_at / RFU SAMD14 (11745864_x_at) / Fold change /veh SAMD14 (11745864_x_at) / RFU NPB (11741838_a_at) / Fold change /veh NPB (11741838_a_at) / RFU TMPRSS6 (11731388_a_at) / Fold change /veh TMPRSS6 (11731388_a_at) / RFU KRTAP10-2 (11738614_at) / Fold change /veh KRTAP10-2 (11738614_at) / RFU ARHGAP8 /// PRR5-ARHGAP8 (11727945_x_at) / Fold change /veh ARHGAP8 /// PRR5-ARHGAP8 (11727945_x_at) / RFU KRTAP5-7 /// NADSYN1 (11734609_at) / Fold change /veh KRTAP5-7 /// NADSYN1 (11734609_at) / RFU RASL12 (11751679_a_at) / Fold change /veh RASL12 (11751679_a_at) / RFU CDKN2B (11736163_a_at) / Fold change /veh CDKN2B (11736163_a_at) / RFU PRF1 (11729649_at) / Fold change /veh PRF1 (11729649_at) / RFU, ZNF638 /// ZNF638-IT1 / Fold change vs veh, ZNF638 /// ZNF638-IT1 / RFU, PANK3 / Fold change vs veh, PANK3 / RFU, SH3YL1 / Fold change vs veh, SH3YL1 / RFU, ZEB2 / Fold change vs veh, ZEB2 / RFU, NRIP1 / Fold change vs veh, NRIP1 / RFU, PTTG1IP / Fold change vs veh, PTTG1IP / RFU, CAPN2 / Fold change vs veh, CAPN2 / RFU, MED14 / Fold change vs veh, MED14 / RFU, SNORA58 / Fold change vs veh, SNORA58 / RFU, C1orf63 / Fold change vs veh, C1orf63 / RFU, LRRFIP1 / Fold change vs veh, LRRFIP1 / RFU, NDUFAF7 / Fold change vs veh, NDUFAF7 / RFU, SLC12A2 / Fold change vs veh, SLC12A2 / RFU, IBTK / Fold change vs veh, IBTK / RFU, ESF1 / Fold change vs veh, ESF1 / Fold change vs veh, TMEM50B / RFU, TAOK1 / Fold change vs veh, TAOK1 / RFU, ACBD3 / Fold change vs veh, ACBD3 / RFU, TMA16 / Fold change vs veh, TMA16 / RFU, RWDD3 / Fold change vs veh, RWDD3 / RFU, BCAT1 / Fold change vs veh, BCAT1 / RFU, EDEM3 / Fold change vs veh, EDEM3 / RFU, TMEM33 / Fold change vs veh, TMEM33 / RFU, WDR75 / Fold change vs veh, WDR75 / RFU, AHCTF1 / Fold change vs veh, AHCTF1 / RFU, TFRC / Fold change vs veh, TFRC / RFU, ZDHHC17 / Fold change vs veh, ZDHHC17 / RFU, NOM1 / Fold change vs veh, NOM1 / RFU, ARL8B / Fold change vs veh, ARL8B / RFU, ZBTB11 / Fold change vs veh, ZBTB11 / RFU, TAMM41 / Fold change vs veh, TAMM41 / RFU, KIAA1704 /// LOC100996395 / Fold change vs veh, KIAA1704 /// LOC100996395 / RFU, ING1 / Fold change vs veh, ING1 / RFU, TRMT61B / Fold change vs veh, TRMT61B / RFU, FUBP3 / Fold change vs veh, FUBP3 / RFU, TP53 / Fold change vs veh, TP53 / RFU, TNKS2 / Fold change vs veh, TNKS2 / RFU, ZFP14 / Fold change vs veh, ZFP14 / RFU, ACTR2 / Fold change vs veh, ACTR2 / RFU, PPP3R1 / Fold change vs veh, PPP3R1 / RFU, PIK3R1 / Fold change vs veh, PIK3R1 / RFU, HNRNPA1 / Fold change vs veh, HNRNPA1 / RFU, RNF170 / Fold change vs veh, RNF170 / RFU, ZNF28 / Fold change vs veh, ZNF28 / RFU, RNGTT / Fold change vs veh, RNGTT / RFU, OGT / Fold change vs veh, OGT / RFU, BRD1 / Fold change vs veh, BRD1 / RFU, MARS / Fold change vs veh, MARS / RFU, ZNF655 / Fold change vs veh, ZNF655 / RFU, FAHD1 / Fold change vs veh, FAHD1 / RFU, BDP1 / Fold change vs veh, BDP1 / RFU, LRRCC1 / Fold change vs veh, LRRCC1 / RFU, ARID1A / Fold change vs veh, ARID1A / RFU, ZNF146 / Fold change vs veh, ZNF146 / RFU, ZNF330 / Fold change vs veh, ZNF330 / RFU, GPN3 / Fold change vs veh, GPN3 / RFU, C9orf123 / Fold change vs veh, C9orf123 / RFU, N4BP2L2 / Fold change vs veh, N4BP2L2 / RFU, ARFIP1 / Fold change vs veh, ARFIP1 / RFU, FAM179B / Fold change vs veh, FAM179B / RFU, BCL10 / Fold change vs veh, BCL10 / RFU, UHRF1BP1L / Fold change vs veh, UHRF1BP1L / RFU, BET1 / Fold change vs veh, BET1 / RFU, CNOT2 / Fold change vs veh, CNOT2 / RFU, ZNF268 / Fold change vs veh, ZNF268 / Fold change vs veh, ZNF507 / RFU, DGCR2 / Fold change vs veh, DGCR2 / RFU, WDSUB1 / Fold change vs veh, WDSUB1 / Fold change vs veh, HSP90B1 /// MIR3652 / RFU, ADSS / Fold change vs veh, ADSS / RFU, GK / Fold change vs veh, GK / RFU, ZNF148 / Fold change vs veh, ZNF148 / RFU, TAF9 / Fold change vs veh, TAF9 / RFU, SLC1A5 / Fold change vs veh, SLC1A5 / RFU, SLMO2 / Fold change vs veh, SLMO2 / RFU, ABCC4 / Fold change vs veh, ABCC4 / RFU, LOC101060439 /// RAP1B / Fold change vs veh, LOC101060439 /// RAP1B / RFU, RFX7 / Fold change vs veh, RFX7 / RFU, GTPBP10 / Fold change vs veh, GTPBP10 / RFU, CNEP1R1 / Fold change vs veh, CNEP1R1 / RFU, BIVM-ERCC5 /// ERCC5 / Fold change vs veh, BIVM-ERCC5 /// ERCC5 / RFU, ILF3 / Fold change vs veh, ILF3 / RFU 11762660_at / Fold change /veh 11762660_at / RFU VCAN (11757783_s_at) / Fold change /veh VCAN (11757783_s_at) / RFU DDX43 (11728927_at) / Fold change /veh DDX43 (11728927_at) / RFU KRT8 (11758188_x_at) / Fold change /veh KRT8 (11758188_x_at) / RFU NKD1 (11759106_at) / Fold change /veh NKD1 (11759106_at) / RFU SRD5A1 (11742802_a_at) / Fold change /veh SRD5A1 (11742802_a_at) / RFU TPSAB1 /// TPSB2 (11721975_s_at) / Fold change /veh TPSAB1 /// TPSB2 (11721975_s_at) / RFU GSTM3 (11746129_a_at) / Fold change /veh GSTM3 (11746129_a_at) / RFU IL23R (11737362_x_at) / Fold change /veh IL23R (11737362_x_at) / RFU TMEM51 (11727254_a_at) / Fold change /veh TMEM51 (11727254_a_at) / RFU PIWIL2 (11732686_x_at) / Fold change /veh PIWIL2 (11732686_x_at) / RFU ORM1 (11744905_x_at) / Fold change /veh ORM1 (11744905_x_at) / RFU CCDC152 (11743942_at) / Fold change /veh CCDC152 (11743942_at) / RFU ECM1 (11717891_a_at) / Fold change /veh ECM1 (11717891_a_at) / RFU IL23R (11748794_a_at) / Fold change /veh IL23R (11748794_a_at) / RFU TNFAIP8L3 (11732012_x_at) / Fold change /veh TNFAIP8L3 (11732012_x_at) / RFU MBOAT4 (11741988_at) / Fold change /veh MBOAT4 (11741988_at) / RFU 11764193_at / Fold change /veh 11764193_at / RFU TMEM53 (11763286_at) / Fold change /veh TMEM53 (11763286_at) / RFU MAGEB2 (11727129_at) / Fold change /veh MAGEB2 (11727129_at) / RFU TMEM200A (11744735_a_at) / Fold change /veh TMEM200A (11744735_a_at) / RFU CCDC152 (11751479_a_at) / Fold change /veh CCDC152 (11751479_a_at) / RFU FAM211A (11726209_a_at) / Fold change /veh FAM211A (11726209_a_at) / RFU RGS16 (11746705_a_at) / Fold change /veh RGS16 (11746705_a_at) / RFU VCAN (11755009_s_at) / Fold change /veh VCAN (11755009_s_at) / RFU RHOB (11743442_s_at) / Fold change /veh RHOB (11743442_s_at) / RFU RGS16 (11720943_a_at) / Fold change /veh RGS16 (11720943_a_at) / RFU RGS16 (11720944_at) / Fold change /veh RGS16 (11720944_at) / RFU, VPS4B / Fold change vs veh, VPS4B / RFU, CREB1 / Fold change vs veh, CREB1 / RFU, DNAJC13 / Fold change vs veh, DNAJC13 / RFU, GNAQ / Fold change vs veh, GNAQ / RFU, CDK5R1 / Fold change vs veh, CDK5R1 / RFU, ZRANB3 / Fold change vs veh, ZRANB3 / RFU, CUL4A / Fold change vs veh, CUL4A / RFU, CCNY / Fold change vs veh, CCNY / RFU, UFL1 / Fold change vs veh, UFL1 / RFU, COG3 / Fold change vs veh, COG3 / RFU, DIAPH2 / Fold change vs veh, DIAPH2 / RFU, SKA2 / Fold change vs veh, SKA2 / RFU, AFF3 / Fold change vs veh, AFF3 / RFU, LMF1 / Fold change vs veh, LMF1 / RFU, IPO11 / Fold change vs veh, IPO11 / RFU, DFFB / Fold change vs veh, DFFB / RFU, FOXP1 / Fold change vs veh, FOXP1 / RFU, CARD8 / Fold change vs veh, CARD8 / RFU, STRN3 / Fold change vs veh, STRN3 / RFU, ADK / Fold change vs veh, ADK / RFU, RASSF2 / Fold change vs veh, RASSF2 / RFU, WIPF1 / Fold change vs veh, WIPF1 / RFU, LARP1B / Fold change vs veh, LARP1B / RFU, RASA1 / Fold change vs veh, RASA1 / RFU, RB1 / Fold change vs veh, RB1 / RFU, PPFIA1 / Fold change vs veh, PPFIA1 / RFU, MAT2A / Fold change vs veh, MAT2A / RFU, CCT5 / Fold change vs veh, CCT5 / RFU, WDR92 / Fold change vs veh, WDR92 / RFU, CUX1 / Fold change vs veh, CUX1 / RFU, TTC7A / Fold change vs veh, TTC7A / RFU, TMEM135 / Fold change vs veh, TMEM135 / RFU, DEPTOR / Fold change vs veh, DEPTOR / RFU, CPM / Fold change vs veh, CPM / RFU, DNAJB6 / Fold change vs veh, DNAJB6 / RFU, CACNA2D3 / Fold change vs veh, CACNA2D3 / RFU, DTX4 / Fold change vs veh, DTX4 / RFU, TFCP2 / Fold change vs veh, TFCP2 / RFU, GMCL1 /// GMCL1P1 / Fold change vs veh, GMCL1 /// GMCL1P1 / RFU, AEBP2 / Fold change vs veh, AEBP2 / RFU, SNHG1 /// SNORD22 /// SNORD25 /// SNORD26 /// SNORD27 /// SNORD28 /// SNORD29 /// SNORD31 / Fold change vs veh, SNHG1 /// SNORD22 /// SNORD25 /// SNORD26 /// SNORD27 /// SNORD28 /// SNORD29 /// SNORD31 / Fold change (Aza/veh), C12orf56 (ProbeSet 11735607_a_at) / Fold change (ACY-1035/veh), C12orf56 (ProbeSet 11735607_a_at) / Fold change (Aza/veh), FGFR1OP (ProbeSet 11751329_s_at) / Fold change (ACY-1035/veh), FGFR1OP (ProbeSet 11751329_s_at) / Fold change (Aza/veh), VPS36 (ProbeSet 11739960_a_at) / Fold change (ACY-1035/veh), VPS36 (ProbeSet 11739960_a_at) / RFU SYPL1 (11715823_x_at) / Fold change /veh SYPL1 (11715823_x_at) / RFU IGFBP7 (11715501_s_at) / Fold change /veh IGFBP7 (11715501_s_at) / RFU REEP3 (11722064_at) / Fold change /veh REEP3 (11722064_at) / RFU IGLL1 (11728026_x_at) / Fold change /veh IGLL1 (11728026_x_at): dose or concentration left out as unconfirmed
Details: ProbeSet 11717876_a_at; LIST D

Nc1ncn([C@@H]2O[C@H](CO)[C@@H](O)[C@H]2O)c(=O)n1 [azacitidine]
Fold change vs veh, PPFIA1: 0.68

From paper PMC5218480 (PLoS ONE, 2017)
